Reference: ChEMBL document CHEMBL1201862, “PubChem BioAssay data set” (2004)
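All cell lines were grown in 96-well plates and treated with compound for 48 hours. Here, GI50 denotes the concentration required for 50% inhibition of growth.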 Activity calls are given as the source filed them. No stated cut-off is given here; in the data, active = GI50 up to about 1.1 µM and inactive = higher.

Legend:
Assay in all cases: NCI tumour cell line growth inhibition, 48 h
T47D = test system: T47D
CAKI-1 = test system: CAKI-1
HOP-62 = test system: HOP-62
HOP-92 = test system: HOP-92
M14 = test system: M14
MDA-MB-231 = test system: MDA-MB-231
786-0 = test system: 786-0
HT-29 = test system: HT-29
SF-268 = test system: SF-268
HCT-116 = test system: HCT-116
PC-3 = test system: PC-3
SK-MEL-5 = test system: SK-MEL-5
SK-MEL-28 = test system: SK-MEL-28
SK-OV-3 = test system: SK-OV-3
ACHN = test system: ACHN
MDA-N = test system: MDA-N
Malme-3M = test system: Malme-3M
CCRF-CEM = test system: CCRF-CEM
HL-60 = test system: HL-60
SR = test system: SR

Measured: GI50

Cc1ccc(Nc2[nH]c(=O)[nH]c(=O)c2C)cc1Cl
inactive: T47D > 100 µM | CAKI-1 67.3 µM | HOP-62 > 100 µM | HOP-92 76 µM | M14 > 100 µM | MDA-MB-231 > 100 µM | 786-0 > 100 µM | HT-29 > 100 µM | SF-268 87.7 µM | HCT-116 > 100 µM | PC-3 67.9 µM | SK-MEL-5 92 µM | SK-MEL-28 > 100 µM | SK-OV-3 > 100 µM | ACHN > 100 µM | MDA-N > 100 µM | Malme-3M > 100 µM

CCCCCC(O)[C@H]1C(=O)C[C@@H](O[Si](C)(C)C(C)(C)C)[C@@H]1/C=C/CCOCc1ccccc1 (some centres not stated)
inactive: T47D 13.6 µM | CAKI-1 8.47 µM | HOP-62 17.3 µM | HOP-92 12.4 µM | M14 12.6 µM | MDA-MB-231 29.2 µM | 786-0 11.4 µM | HT-29 9.59 µM | SF-268 16.3 µM | HCT-116 6.9 µM | PC-3 12.1 µM | SK-MEL-5 16.6 µM | CCRF-CEM > 55.5 µM | SK-MEL-28 15.5 µM | SK-OV-3 16.8 µM | ACHN 13.5 µM | MDA-N 9.51 µM | HL-60 2.35 µM | Malme-3M 15.3 µM

Nc1ncnc2c1ncn2[C@H]1CC[C@@H](NO)C1
inactive: T47D > 100 µM | CAKI-1 > 100 µM | HOP-62 > 100 µM | HOP-92 > 100 µM | M14 > 100 µM | MDA-MB-231 > 100 µM | 786-0 > 100 µM | SF-268 > 100 µM | HCT-116 > 100 µM | PC-3 > 100 µM | SR > 100 µM | SK-MEL-5 > 100 µM | CCRF-CEM > 100 µM | SK-MEL-28 > 100 µM | SK-OV-3 > 100 µM | ACHN > 100 µM | MDA-N > 100 µM | Malme-3M > 100 µM

C[C@H](CC[C@@H](O)C(C)(C)O)[C@H]1CC[C@@]2(C)[C@@H]3CC=C4[C@@H](CC[C@H](OC5OC(CO)C(O)C(O)C5O)C4(C)C)[C@]3(C)C(=O)C[C@]12C (some centres not stated)
inactive: T47D 97.9 µM | CAKI-1 65 µM | HOP-62 36.8 µM | HOP-92 > 100 µM | M14 31.1 µM | MDA-MB-231 > 100 µM | 786-0 26.6 µM | HT-29 26.1 µM | SF-268 57.7 µM | HCT-116 45.3 µM | PC-3 75 µM | SK-MEL-5 39.5 µM | CCRF-CEM 14.6 µM | SK-MEL-28 27.7 µM | SK-OV-3 31 µM | ACHN 32.7 µM | MDA-N 32.7 µM | HL-60 20.7 µM | Malme-3M 49.4 µM

O=C1CC=C2C3CC4N(CCC45c4ccccc4N1C25)C/C3=C\CO (configuration not stated)
inactive: T47D > 100 µM | CAKI-1 > 100 µM | HOP-92 > 100 µM | MDA-MB-231 > 100 µM | 786-0 > 100 µM | HT-29 > 100 µM | SF-268 > 100 µM | HCT-116 > 100 µM | PC-3 > 100 µM | SK-MEL-5 > 100 µM | CCRF-CEM > 100 µM | SK-MEL-28 > 100 µM | SK-OV-3 > 100 µM | ACHN > 100 µM | MDA-N > 100 µM | HL-60 > 100 µM | Malme-3M > 100 µM

COc1cc2c(cc1O)C1Cc3ccc(OC)c(O)c3C[N+]1(C)CC2 (configuration not stated)
inactive: T47D > 100 µM | CAKI-1 > 100 µM | HOP-62 > 100 µM | HOP-92 > 100 µM | M14 > 100 µM | MDA-MB-231 > 100 µM | 786-0 > 100 µM | HT-29 > 100 µM | SF-268 > 100 µM | HCT-116 > 100 µM | PC-3 > 100 µM | SK-MEL-5 > 100 µM | CCRF-CEM 45 µM | SK-MEL-28 > 100 µM | SK-OV-3 > 100 µM | ACHN > 100 µM | MDA-N > 100 µM | HL-60 > 100 µM | Malme-3M > 100 µM

C/C=C\C(CC(=O)NCCC1CN(S(=O)(=O)c2ccc(C)cc2)c2ccccc21)CC(=O)OC (configuration not stated)
inactive: T47D > 100 µM | CAKI-1 > 100 µM | HOP-62 > 100 µM | HOP-92 > 100 µM | M14 > 100 µM | MDA-MB-231 > 100 µM | 786-0 > 100 µM | HT-29 > 100 µM | SF-268 > 100 µM | HCT-116 > 100 µM | PC-3 > 100 µM | SK-MEL-5 > 100 µM | SK-MEL-28 > 100 µM | SK-OV-3 > 100 µM | ACHN > 100 µM | MDA-N > 100 µM | Malme-3M > 100 µM

CC1=C2C(=O)O[C@@H](c3ccoc3)[C@]2(C)CCC1=O [FRAXINELLONONE]
inactive: T47D > 100 µM | CAKI-1 > 100 µM | HOP-62 > 100 µM | HOP-92 > 100 µM | M14 > 100 µM | MDA-MB-231 > 100 µM | 786-0 > 100 µM | HCT-116 > 100 µM | PC-3 > 100 µM | SR > 100 µM | SK-MEL-5 > 100 µM | CCRF-CEM > 100 µM | SK-MEL-28 > 100 µM | SK-OV-3 > 100 µM | ACHN > 100 µM | MDA-N > 100 µM
